Measured values: patent US12084420B2, “Indoline compounds for inhibiting KIF18A” (Volastra Therapeutics, Inc., priority 2021, dated 2024)

These compounds were tested against hKIF18A (1-374) (Homo sapiens (Human), UniProt Q8NI77) (assay: Inhibition of KIF18A microtubule-dependent ATPase activity (ADP-Glo)). Conditions: not given.
Sequence of hKIF18A (1-374) (Q8NI77 whole entry, looked up): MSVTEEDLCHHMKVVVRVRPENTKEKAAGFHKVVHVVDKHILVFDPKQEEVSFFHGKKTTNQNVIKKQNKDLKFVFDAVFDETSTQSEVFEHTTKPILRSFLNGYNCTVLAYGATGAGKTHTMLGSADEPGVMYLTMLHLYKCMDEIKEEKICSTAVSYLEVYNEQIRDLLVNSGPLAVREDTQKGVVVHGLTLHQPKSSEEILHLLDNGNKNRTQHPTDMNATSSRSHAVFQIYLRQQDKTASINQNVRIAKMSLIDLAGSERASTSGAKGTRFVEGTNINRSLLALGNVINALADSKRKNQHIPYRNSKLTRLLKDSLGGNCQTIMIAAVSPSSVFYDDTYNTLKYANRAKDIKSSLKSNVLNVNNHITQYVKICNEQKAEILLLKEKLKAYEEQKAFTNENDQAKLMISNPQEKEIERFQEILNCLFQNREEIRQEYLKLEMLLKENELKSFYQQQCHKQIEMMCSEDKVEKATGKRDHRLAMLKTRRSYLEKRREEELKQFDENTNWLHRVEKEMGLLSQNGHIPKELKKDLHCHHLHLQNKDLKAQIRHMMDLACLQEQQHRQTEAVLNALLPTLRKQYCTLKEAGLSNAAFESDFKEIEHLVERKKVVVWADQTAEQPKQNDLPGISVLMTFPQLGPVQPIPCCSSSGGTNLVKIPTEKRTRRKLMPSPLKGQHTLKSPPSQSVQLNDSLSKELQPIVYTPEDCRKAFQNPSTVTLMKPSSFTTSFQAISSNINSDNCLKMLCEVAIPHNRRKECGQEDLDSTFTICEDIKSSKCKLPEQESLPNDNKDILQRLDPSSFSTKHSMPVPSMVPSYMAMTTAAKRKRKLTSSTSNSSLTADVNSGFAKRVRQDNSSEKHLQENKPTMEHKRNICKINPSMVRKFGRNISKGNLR
Sequence of hKIF18A (1-374) (Q2XVP4 whole entry partner, looked up): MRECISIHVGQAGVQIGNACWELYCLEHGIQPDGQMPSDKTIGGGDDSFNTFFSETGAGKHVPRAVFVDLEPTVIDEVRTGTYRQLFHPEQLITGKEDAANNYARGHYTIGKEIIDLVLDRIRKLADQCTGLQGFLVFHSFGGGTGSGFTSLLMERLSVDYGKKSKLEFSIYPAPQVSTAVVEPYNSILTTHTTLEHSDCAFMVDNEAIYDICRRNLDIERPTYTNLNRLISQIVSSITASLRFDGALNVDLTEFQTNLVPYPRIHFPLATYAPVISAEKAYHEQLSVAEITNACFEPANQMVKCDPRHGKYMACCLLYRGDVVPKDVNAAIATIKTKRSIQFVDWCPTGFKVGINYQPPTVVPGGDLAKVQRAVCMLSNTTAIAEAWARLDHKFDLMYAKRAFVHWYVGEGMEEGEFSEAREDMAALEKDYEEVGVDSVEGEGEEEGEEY
Sequence of hKIF18A (1-374) (P02554 whole entry partner, looked up): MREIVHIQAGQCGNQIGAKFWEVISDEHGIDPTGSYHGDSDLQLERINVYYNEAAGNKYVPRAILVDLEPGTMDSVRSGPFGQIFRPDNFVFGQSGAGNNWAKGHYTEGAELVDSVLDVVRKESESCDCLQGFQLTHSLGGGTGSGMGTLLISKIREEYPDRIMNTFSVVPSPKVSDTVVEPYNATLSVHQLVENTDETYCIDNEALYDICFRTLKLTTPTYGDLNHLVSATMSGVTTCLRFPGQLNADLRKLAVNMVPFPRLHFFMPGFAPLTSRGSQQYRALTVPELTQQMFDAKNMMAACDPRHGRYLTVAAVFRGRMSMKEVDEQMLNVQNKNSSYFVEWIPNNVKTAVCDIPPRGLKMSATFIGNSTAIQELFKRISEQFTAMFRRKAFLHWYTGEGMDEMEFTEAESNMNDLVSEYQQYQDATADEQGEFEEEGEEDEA

Compound	IC50 [µM]
CS(=O)(=O)Nc1ccc2c(c1)C1(CCC3(CC3)CC1)CN2C(=O)c1cccc(S(=O)(=O)NC2CC(F)C2)c1 (stereo not drawn) [Compound 204, N-(3-fluorocyclobutyl)-3-(5″- (methylsulfonamido)dispiro [cyclopropane-1,1′-cyclohexane-4′,3″- indoline]-1″-carbonyl)benzenesulfonamide]	0.013

Same assay, conditions: KIF18A microtubule-dependent ATPase activity, biochemical assay

Compound	IC50 [µM]
C=C1CCC2(CC1)CN(C(=O)c1cccc(S(=O)(=O)NC(C)(C)C)c1)c1ccc(NS(C)(=O)=O)cc12 [Compound 324, N-(tert-butyl)-3-(4-methylene-5′-(methylsulfonamido)spiro[cyclohexane-1,3′-indoline]-1′-carbonyl)benzenesulfonamide]	0.021
CS(=O)(=O)Nc1ccc2c(c1)C1(CCCCC1)CN2C(=O)c1cccc(SC2CCCC2)c1 [Compound 146, N-(1′-(3-(cyclopentylthio)benzoyl)spiro[cyclohexane-1,3′-indolin]-5′-yl)methanesulfonamide]	0.19
CS(=O)(=O)Nc1ccc2c(c1)C1(CCC3(CC3)CC1)CN2C(=O)c1cccc(C(O)C2CC(F)(F)C2)c1 (stereo not drawn) [Compound 351, N-(1″-(3-((3,3-difluorocyclobutyl)(hydroxyj)methyl)benzoyl)dispiro[cyclopropane-1,1′-cyclohexane-4′,3″-indolin]-5″- yl)methanesulfonamide]	0.0088
CS(=O)(=O)Nc1ccc2c(c1)C1(CCC3(CC3)CC1)CN2C(=O)c1csc(S(=O)(=O)N2CC3(CCC3)C2)c1 [Compound 279, N-(1″-(5-((2-azaspiro[3.3]heptan-2-yl)sulfonyl)thiophene-3-carbonyl)dispiro[cyclopropane-1,1′-cyclohexane-4′,3″-indolin]-5″- yl)methanesulfonamide]	0.0063
CC(C)(C)NS(=O)(=O)c1cc(F)cc(C(=O)N2CC3(CCCCC3)c3cc(NS(C)(=O)=O)ccc32)c1 [Compound 95, N-(tert-butyl)-3-fluoro-5-(5′-(methylsulfonamido)spiro[cyclohexane-1,3′-indoline]-1′-carbonyl)benzenesulfonamide]	0.17
CC(C)(C)NS(=O)(=O)c1cccc(C(=O)N2C[C@]3(CC[C@@H](C(F)F)CC3)c3cc(NS(C)(=O)=O)ccc32)c1 [Compound 162b]	0.037
CS(=O)(=O)Nc1ccc2c(c1)C1(CCC3(CC3)CC1)CN2C(=O)c1cccc(S(=O)(=O)NC2CCCCC2)c1 [Compound 180, N-cyclohexyl-3-(5″- (methylsulfonamido)dispiro[cyclopropane-1,1′-cyclohexane-4′,3″-indoline]-1″-carbonyl)benzenesulfonamide]	0.011
CC(O)c1ccc2c(c1)C1(CCC3(CC3)CC1)CN2C(=O)c1cccc(S(=O)(=O)NC(C)(C)C)c1 (stereo not drawn) [Compound 332, N-(tert-butyl)-3-(5″-(1-hydroxyethyl)dispiro[cyclopropane-1,1′-cyclohexane-4′,3″-indoline]-1″-carbonyl)benzenesulfonamide]	0.15
CC1(F)CCC2(CC1)CN(C(=O)c1cccc(S(=O)(=O)NC(C)(C)C)c1)c1ccc(NS(C)(=O)=O)cc12 (stereo not drawn) [Compound 329, N-(tert-butyl)-3-(4-fluoro-4-methyl-5′-(methylsulfonamido)spiro[cyclohexane-1,3′-indoline]-1′-carbonyl)benzenesulfonamide]	0.072
CC1(C(O)c2cccc(C(=O)N3CC4(CCC5(CC5)CC4)c4cc(NS(C)(=O)=O)ccc43)c2)CCC1 (stereo not drawn) [Compound 354, N-(1″-(3-(hydroxy(1-methylcyclobutyl)methyl)benzoyl)dispiro[cyclopropane-1,1′-cyclohexane-4′,3″-indolin]-5″- yl)methanesulfonamide]	0.014
CCS(=O)(=O)Nc1ccc2c(c1)C1(CCC3(CC3)CC1)CN2C(=O)c1ccc([C@@H](O)C(C)(C)C)o1 (single isomer, unassigned) [Compound 372b]	0.035
O=C(c1cccc(S(=O)(=O)N2CCC(F)(F)CC2)c1)N1CC2(CCCC2)c2c(F)cccc21 [Compound 1, (3-((4,4-difluoropiperidin-1-yl)sulfonyl)phenyl)(4′-fluorospiro[cyclopentane-1,3′-indolin]-1′-yl)methanone]	1.6
CC(NS(=O)(=O)c1cccc(C(=O)N2CC3(CCC4(CC4)CC3)c3cc(NS(C)(=O)=O)ccc32)c1)C1CC1 (stereo not drawn) [Compound 186, N-(1-cyclopropylethyl)-3-(5″- (methylsulfonamido)dispiro[cyclopropane-1,1′-cyclohexane-4′,3″-indoline]-1″-carbonyl)benzenesulfonamide]	0.012
N-(1-hydroxy-2-methylpropan-2-yl)-3- (5″- (methylsulfonamido)dispiro[cyclopropane- 1,1′-cyclohexane-4′,3″-indoline]- 1″-carbonyl)benzenesulfonamide [Compound 194]	0.05
C=C1CN(S(=O)(=O)c2cccc(C(=O)N3CC4(CCC5(CC5)CC4)c4cc(NS(C)(=O)=O)ccc43)c2)C1 [Compound 258]	0.014
CS(=O)(=O)Nc1ccc2c(c1)C1(CCC3(CC3)CC1)CN2C(=O)c1cccc(C(O)CN2CCC(F)(F)CC2)c1 (stereo not drawn) [Compound 315, N-(1″-(3-(2-(4,4-difluoropiperidin-1-yl)-1-hydroxyethyl)benzoyl)dispiro[cyclopropane-1,1′-cyclohexane-4′,3″-indolin]-5″-yl)methanesulfonamide]	0.053
CC1CCN(S(=O)(=O)c2cccc(C(=O)N3CC4(CCCCC4)c4cc(NS(C)(=O)=O)ccc43)c2)C1 (stereo not drawn) [Compound 71, N-(1′-(3-((3-methylpyrrolidin-1-yl)sulfonyl)benzoyl)spiro[cyclohexane-1,3′-indolin]-5′-yl)methanesulfonamide]	0.086
CC1CN(S(=O)(=O)c2cccc(C(=O)N3CC4(CCC5(CC5)CC4)c4cc(NS(C)(=O)=O)ccc43)c2)C1 [Compound 260, N-(1″-(3-((3-methylazetidin-1-yl)sulfonyl)benzoyl)dispiro[cyclopropane-1,1′-cyclohexane-4′,3″-indolin]-5″- yl)methanesulfonamide]	0.012
O=C(c1cccc(S(=O)(=O)N2CCCC2)c1)N1CC2(CCC3(CC3)CC2)c2ccccc21 [Compound 8, dispiro[cyclopropane-1,1′-cyclohexane-4′,3″-indolin]-1″-yl(3-(pyrrolidin-1-ylsulfonyl)phenyl)methanone]	0.94

Second part, the compound after the results:

IC50 [µM]	Compound
0.015	CS(=O)(=O)Nc1ccc2c(c1)C1(CCC3(CC3)CC1)CN2C(=O)c1cccc(S(=O)(=O)N2CC[C@H](F)C2)c1 [(S)-Compound 239, (S)-N-(1″-(3-((3-fluoropyrrolidin-1-yl)sulfonyl)benzoyl)dispiro[cyclopropane-1,1′-cyclohexane-4′,3″-indolin]-5″- yl)methanesulfonamide]
0.0056	CS(=O)(=O)Nc1ccc2c(c1)C1(CCC3(CC3)CC1)CN2C(=O)c1cccc(S(=O)(=O)NC2CCCC2)c1 [Compound 176, N-cyclopentyl-3-(5″- (methylsulfonamido)dispiro[cyclopropane-1,1″-cyclohexane-4′,3″-indoline]-1″-carbonyl)benzenesulfonamide]
0.016	CS(=O)(=O)Nc1ccc2c(c1)C1(CCC3(CC3)CC1)CN2C(=O)c1ccnc([C@H](O)C2CCCC2)c1 (single isomer, unassigned) [Compound 316b]
0.021	CS(=O)(=O)Nc1ccc2c(c1)C1(CCC3(CC3)CC1)CN2C(=O)c1csc(C(O)C2CCCC2)c1 (stereo not drawn) [Compound 301, N-(1″-(5-(cyclopentyl(hydroxy)methyl)thiophene-3-carbonyl)dispiro[cyclopropane-1,1′-cyclohexane-4′,3″-indolin]-5″-yl)methanesulfonamide]
0.056	CS(=O)(=O)Nc1ccc2c(c1)C1(CCC3(CC3)CC1)CN2C(=O)c1cccc(S(=O)(=O)NC2COC2)c1 [Compound 174, 3-(5″- (methylsulfonamido)dispiro[cyclopropane-1,1′-cyclohexane-4′,3″-indoline]-1″-carbonyl)-N-(oxetan-3-yl)benzenesulfonamide]
0.023	CC1CCC2(C1)CN(C(=O)c1cccc(S(=O)(=O)N3CCC(F)(F)CC3)c1)c1ccc(NS(C)(=O)=O)cc12 (stereo not drawn) [Compound 23, N-(1′-(3-((4,4-difluoropiperidin-1-yl)sulfonyl)benzoyl)-3-methylspiro[cyclopentane-1,3′-indolin]-5′-yl)methanesulfonamide]
0.0046	O=C(c1cccc(S(=O)(=O)N2CC3(CCC3)C2)c1)N1CC2(CCC3(CC3)CC2)c2cc(NS(=O)(=O)CCO)ccc21 [Compound 228, N-(1″-(3-((2-azaspiro[3.3]heptan-2-yl)sulfonyl)benzoyl)dispiro[cyclopropane-1,1′-cyclohexane-4′,3″-indolin]-5″- yl)-2-hydroxyethane-1-sulfonamide]
0.012	CS(=O)(=O)Nc1ccc2c(c1)C1(CCC3(CC3)CC1)CN2C(=O)c1cccc([C@@H](O)C2CC(F)(F)C2)c1 [Compound 351b]
0.022	CC(=O)NCCCS(=O)(=O)Nc1ccc2c(c1)C1(CCC3(CC3)CC1)CN2C(=O)c1cccc(S(=O)(=O)NC(C)(C)C)c1 [Compound 292, N-(3-(N-(1″-(3-(N-(tert-butyl)sulfamoyl)benzoyl)dispiro [cyclopropane-1,1′-cyclohexane-4′,3″- indolin]-5″- yl)sulfamoyl)propyl)acetamide]
0.0089	CS(=O)(=O)Nc1ccc2c(c1)C1(CCC3(CC3)CC1)CN2C(=O)c1cccc(C(O)CC2CCC2)c1 (stereo not drawn) [Compound 305, N-(1″-(3-(2-cyclobutyl-1-hydroxyethyl)benzoyl)dispiro [cyclopropane-1,1′-cyclohexane-4′,3″-indolin]-5″-yl)methanesulfonamide]
0.011	CS(=O)(=O)Nc1ccc2c(c1)C1(CCC3(CC3)CC1)CN2C(=O)c1cccc(C(O)C2CCCC2)n1 (stereo not drawn) [Compound 317, N-(1″-(6-(cyclopentyl(hydroxy)methyl)picolinoyl)dispiro[cyclopropane-1,1′-cyclohexane-4′,3″-indolin]-5″- yl)methanesulfonamide]
0.019	CS(=O)(=O)Nc1ccc2c(c1)C1(CCC3(CC3)CC1)CN2C(=O)c1cccc([C@@H](O)C2CCC2)c1 (single isomer, unassigned) [Compound 313a]
0.015	CS(=O)(=O)Nc1ccc2c(c1)C1(CCC3(CC3)CC1)CN2C(=O)c1cccc([C@H](O)C2CCC2)c1 (single isomer, unassigned) [Compound 313b]
